Experiment [1] has as its target T1, human TLR7 (Homo sapiens, UniProt Q9NYK1).
T1 construct: host or cells: HEK-Blue cells
T1 sequence (Q9NYK1 27-1049): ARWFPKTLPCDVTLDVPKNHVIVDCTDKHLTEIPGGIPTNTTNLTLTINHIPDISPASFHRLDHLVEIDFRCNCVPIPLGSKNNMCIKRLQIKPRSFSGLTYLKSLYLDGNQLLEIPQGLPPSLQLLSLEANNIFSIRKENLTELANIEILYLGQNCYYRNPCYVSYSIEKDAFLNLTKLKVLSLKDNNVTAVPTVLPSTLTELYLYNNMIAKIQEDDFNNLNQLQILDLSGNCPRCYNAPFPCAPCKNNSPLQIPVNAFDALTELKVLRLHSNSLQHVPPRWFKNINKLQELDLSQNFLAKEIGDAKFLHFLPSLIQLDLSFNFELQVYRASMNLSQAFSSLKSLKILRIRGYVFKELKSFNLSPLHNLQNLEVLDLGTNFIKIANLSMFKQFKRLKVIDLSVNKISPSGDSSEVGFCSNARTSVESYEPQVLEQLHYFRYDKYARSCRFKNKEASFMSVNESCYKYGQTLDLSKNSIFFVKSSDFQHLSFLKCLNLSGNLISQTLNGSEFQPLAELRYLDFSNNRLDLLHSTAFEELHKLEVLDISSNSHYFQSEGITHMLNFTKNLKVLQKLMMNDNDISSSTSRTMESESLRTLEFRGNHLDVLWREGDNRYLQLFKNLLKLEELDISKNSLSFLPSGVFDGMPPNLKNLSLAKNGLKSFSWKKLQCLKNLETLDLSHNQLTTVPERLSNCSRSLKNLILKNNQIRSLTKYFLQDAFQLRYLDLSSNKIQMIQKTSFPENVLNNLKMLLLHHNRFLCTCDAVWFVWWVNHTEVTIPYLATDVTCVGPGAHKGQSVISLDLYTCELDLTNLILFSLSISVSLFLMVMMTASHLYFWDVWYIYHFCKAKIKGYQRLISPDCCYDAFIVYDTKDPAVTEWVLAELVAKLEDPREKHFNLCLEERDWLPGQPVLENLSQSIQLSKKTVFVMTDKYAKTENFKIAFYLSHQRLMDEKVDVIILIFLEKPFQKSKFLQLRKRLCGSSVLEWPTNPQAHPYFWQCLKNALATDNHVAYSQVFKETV
The experiment in a line: TLR7 inhibition reporter assay (HEK-Blue SEAP). Format: cell-based. Particulars: HEK-Blue cells overexpressing human TLR7, gardiquimod 7.5 μM, 22 hour incubation. Put shortly:
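22 h, 37° C, 5% CO2 incubation; compounds 0.05 nM-50 μM final; TLR7 cells 15000/well, TLR8 20,000/well. Readout: SEAP via HEK-Blue Detection medium. % inhibition = signal reduction versus agonist + DMSO wells, referenced to known inhibitor.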

For experiment [2], the target named is T2, human TLR8 (Homo sapiens, UniProt Q9NR97).
T2 construct: host or cells: HEK-Blue cells
T2 sequence (Q9NR97 27-1041): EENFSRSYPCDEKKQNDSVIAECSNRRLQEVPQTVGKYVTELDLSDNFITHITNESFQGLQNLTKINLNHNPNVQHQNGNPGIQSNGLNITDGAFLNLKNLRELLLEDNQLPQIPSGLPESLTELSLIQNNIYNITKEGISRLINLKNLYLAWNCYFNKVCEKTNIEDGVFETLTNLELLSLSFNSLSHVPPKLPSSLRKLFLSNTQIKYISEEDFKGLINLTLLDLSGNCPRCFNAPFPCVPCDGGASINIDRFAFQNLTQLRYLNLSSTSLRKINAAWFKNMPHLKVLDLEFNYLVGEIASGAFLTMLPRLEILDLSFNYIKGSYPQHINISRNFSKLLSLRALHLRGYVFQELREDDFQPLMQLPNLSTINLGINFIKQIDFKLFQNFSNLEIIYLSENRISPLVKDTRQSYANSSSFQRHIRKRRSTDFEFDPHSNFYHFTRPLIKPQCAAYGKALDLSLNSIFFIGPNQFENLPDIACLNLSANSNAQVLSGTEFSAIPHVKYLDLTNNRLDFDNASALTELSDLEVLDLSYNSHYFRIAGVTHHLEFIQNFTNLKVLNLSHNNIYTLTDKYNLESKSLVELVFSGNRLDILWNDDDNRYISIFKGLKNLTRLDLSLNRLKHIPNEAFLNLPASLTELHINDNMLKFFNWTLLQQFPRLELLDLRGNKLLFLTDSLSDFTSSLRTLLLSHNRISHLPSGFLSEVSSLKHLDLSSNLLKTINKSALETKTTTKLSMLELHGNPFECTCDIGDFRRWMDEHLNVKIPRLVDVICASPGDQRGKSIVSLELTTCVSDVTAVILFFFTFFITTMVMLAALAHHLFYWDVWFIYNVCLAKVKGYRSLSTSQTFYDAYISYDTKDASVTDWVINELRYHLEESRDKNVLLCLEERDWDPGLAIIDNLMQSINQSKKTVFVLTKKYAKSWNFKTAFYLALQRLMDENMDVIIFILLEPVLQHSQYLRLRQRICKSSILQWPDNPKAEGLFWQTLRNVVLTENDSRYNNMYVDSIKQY
Description: TLR8 inhibition reporter assay (HEK-Blue SEAP). To be noted: HEK-Blue cells overexpressing human TLR8, R848 15.9 μM, 22 hour incubation. It is filed as cell-based. Put shortly:
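Compound treatment: 30 min, RT, 0.05 nM–50 μM final. Agonist: TLR7 gardiquimod 7.5 μM; TLR8 R848 15.9 μM; TLR9 ODN2006 5 nM. Incubation 22 h, 37 °C, 5% CO2. Readout SEAP, HEK-Blue Detection.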

`COc1cc(-c2cc3[nH]c(=O)n([C@H]4CC[C@H](N(C)C)CC4)c3cc2C(C)C)cn2ncnc12` [Example 202, 1-((1r,4r)-4-(dimethylamino)cyclohexyl)-6-isopropyl-5-(8-methoxy-[1,2,4]triazolo[1,5-a]pyridin-6-yl)-1,3-dihydro-2H-benzo[d]imidazol-2-one]: the values for the 50% inhibitory concentration (IC50) in experiment [1] and in experiment [2] were 3.51 nM and 0.81 nM, respectively.

For the compound `CCc1cc2c(cc1-c1cc(OC)c3ncnn3c1)[nH]c(=O)n2[C@@H]1CCCN(CCC(F)(F)F)C1` [Example 183, (R)-6-ethyl-5-(8-methoxy-[1,2,4]triazolo[1,5-a]pyridin-6-yl)-1-(1-(3,3,3-trifluoropropyl)piperidin-3-yl)-1,3-dihydro-2H-benzo[d]imidazol-2-one], the results for the IC50 in experiment [1] and in experiment [2] were 12.2 nM and 6.44 nM, respectively.

For `COc1cc(-c2cc3[nH]c(=O)n(C4CCC(N5CCNC(=O)C5)CC4)c3cc2C(C)C)cn2ncnc12` (stereo not drawn) [Example 243, 6-isopropyl-5-(8-methoxy-[1,2,4]triazolo[1,5-a]pyridin-6-yl)-1-(4-(3-oxopiperazin-1-yl)cyclohexyl)-1,3-dihydro-2H-benzo[d]imidazol-2-one], the IC50 in experiment [1] amounted to 119 nM; in experiment [2], 81.5 nM.

In the case of `COc1cc(-c2cc3[nH]c(=O)n([C@H]4CC[C@H](NCC(C)C)CC4)c3cc2C(C)C)cn2ncnc12` [Example 204, 1-((1r,4s)-4-(isobutylamino)cyclohexyl)-6-isopropyl-5-(8-methoxy-[1,2,4]triazolo[1,5-a]pyridin-6-yl)-1,3-dihydro-2H-benzo[d]imidazol-2-one], the IC50 in experiment [1] worked out at 3.21 nM; in experiment [2] it was 1.23 nM.

For `COc1cc(-c2cc3[nH]c(=O)n([C@H]4CC[C@H](NC(C)C)CC4)c3cc2C(C)C)cn2ncnc12` [Example 203, 6-isopropyl-1-((1r,4s)-4-(isopropylamino)cyclohexyl)-5-(8-methoxy-[1,2,4]triazolo[1,5-a]pyridin-6-yl)-1,3-dihydro-2H-benzo[d]imidazol-2-one], the IC50 in experiment [1] is 4.72 nM; in experiment [2], 1.34 nM.

On to `Cc1cc2c(cc1-c1cc(C)c3ncnn3c1)[nH]c(=O)n2[C@H]1CCCN(C2COC2)C1` [Example 14, (S)-6-methyl-5-(8-methyl-[1,2,4]triazolo[1,5-a]pyridin-6-yl)-1-(1-(oxetan-3-yl)piperidin-3-yl)-1,3-dihydro-2H-benzo[d]imidazol-2-one], for which the results for the IC50 in experiment [1] and in experiment [2] were 787 nM and 155 nM, respectively.

`COc1cc(-c2cc3[nH]c(=O)n(C4CCC(N5CCCC5)CC4)c3cc2C(C)C)cn2ncnc12` (stereo not drawn) [Example 232, 6-isopropyl-5-(8-methoxy-[1,2,4]triazolo[1,5-a]pyridin-6-yl)-1-(4-(pyrrolidin-1-yl)cyclohexyl)-1,3-dihydro-2H-benzo[d]imidazol-2-one]: the IC50 worked out at 1.4 nM in experiment [1] and 0.44 nM in experiment [2].

For the compound `COc1c(C)c(-c2cc3[nH]c(=O)n(C4CCC(N5CCC(F)(F)CC5)CC4)c3cc2C(C)C)cn2ncnc12` (single isomer, unassigned) [Example 230, 1-(4-(4,4-difluoropiperidin-1-yl)cyclohexyl)-6-isopropyl-5-(8-methoxy-7-methyl-[1,2,4]triazolo[1,5-a]pyridin-6-yl)-1,3-dihydro-2H-benzo[d]imidazol-2-one], the IC50 in experiment [1] turned out to be 60.3 nM; in experiment [2], 5.49 nM.

Consider `COCCN1CCC[C@H](n2c(=O)[nH]c3cc(-c4cc(OC)c5ncnn5c4)c(C(C)C)cc32)C1` [Example 221, (S)-6-isopropyl-5-(8-methoxy-[1,2,4]triazolo[1,5-a]pyridin-6-yl)-1-(1-(2-methoxyethyl)piperidin-3-yl)-1,3-dihydro-2H-benzo[d]imidazol-2-one], for which the figures for the IC50 in experiment [1] and in experiment [2] were 11.3 nM and 5.67 nM, respectively.

For `COc1cc(-c2cc3[nH]c(=O)n([C@H]4CC[C@@H](NC5CCOCC5)CC4)c3cc2C(C)C)cn2ncnc12` [Example 193, 6-isopropyl-5-(8-methoxy-[1,2,4]triazolo[1,5-a]pyridin-6-yl)-1-((1s,4s)-4-((tetrahydro-2H-pyran-4-yl)amino)cyclohexyl)-1,3-dihydro-2H-benzo[d]imidazol-2-one], the IC50 turned out to be 2.22 nM in experiment [1] and 0.48 nM in experiment [2].

For `Cc1c(-c2cc3[nH]c(=O)n([C@H]4CC[C@@H](NCC(C)(C)C)CC4)c3cc2C(C)C)cn2ncnc2c1C` [Example 190, 5-(7,8-dimethyl-[1,2,4]triazolo[1,5-a]pyridin-6-yl)-6-isopropyl-1-((1s,4s)-4-(neopentylamino)cyclohexyl)-1,3-dihydro-2H-benzo[d]imidazol-2-one], the values for the IC50 in experiment [1] and in experiment [2] were 5.72 nM and 0.08 nM, respectively.

In the case of `CCc1cc2c(cc1-c1cc(OC)c3ncnn3c1)[nH]c(=O)n2[C@@H]1CCCN(CCC(C)(C)C)C1` [Example 208, (R)-1-(1-(3,3-dimethylbutyl)piperidin-3-yl)-6-ethyl-5-(8-methoxy-[1,2,4]triazolo[1,5-a]pyridin-6-yl)-1,3-dihydro-2H-benzo[d]imidazol-2-one], the IC50 amounted to 6.52 nM in experiment [1] and 3.77 nM in experiment [2].

With `COc1cc(-c2cc3[nH]c(=O)n([C@@H]4CCCN(C5CCOC5)C4)c3cc2C(C)C)cn2ncnc12` (stereo partly drawn) [Example 216, 6-isopropyl-5-(8-methoxy-[1,2,4]triazolo[1,5-a]pyridin-6-yl)-1-((3R)-1-(tetrahydrofuran-3-yl)piperidin-3-yl)-1,3-dihydro-2H-benzo[d]imidazol-2-one], the IC50 in experiment [1] came out at 14.6 nM; in experiment [2], 26.4 nM.

Turning to `COc1cc(-c2cc3[nH]c(=O)n([C@H]4CCCN(CC(N)=O)C4)c3cc2C(C)C)cn2ncnc12` [Example 220, (S)-2-(3-(6-isopropyl-5-(8-methoxy-[1,2,4]triazolo[1,5-a]pyridin-6-yl)-2-oxo-2,3-dihydro-1H-benzo[d]imidazol-1-yl)piperidin-1-yl)acetamide], the IC50 in experiment [1] came out at 244 nM; in experiment [2] it was 100 nM.

For the compound `COc1cc(-c2cc3[nH]c(=O)n([C@@H]4CCCN(CCC(C)(C)C)C4)c3cc2C(C)C)cn2ncnc12` [Example 210, (R)-1-(1-(3,3-dimethylbutyl)piperidin-3-yl)-6-isopropyl-5-(8-methoxy-[1,2,4]triazolo[1,5-a]pyridin-6-yl)-1,3-dihydro-2H-benzo[d]imidazol-2-one], the IC50 turned out to be 2.86 nM in experiment [1] and 3.3 nM in experiment [2].

Values taken from US12187723B2 (BRISTOL-MYERS SQUIBB COMPANY, priority 2019, dated 2025).
